Reference: US12398154B2, “Azaquinazoline pan-KRas inhibitors” (Mirati Therapeutics, Inc., priority 2020, dated 2025)

Experiments:
[1] = system: phospho-ERK in MKN1 (WTdep) cells; assay: Inhibition of KRas-mediated phosphorylation of ERK (in-cell western); format: cell-based; settings: Homo sapiens, MKN-1, 3 hours compound, phospho-ERK normalized to GAPDH
Procedure, shortened: (§1)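 Cells were treated with compound for 3 hours (0.5% DMSO final), then fixed with formaldehyde and permeabilized with ice-cold methanol. Phospho-ERK (Thr202/Tyr204) was detected by antibody and normalized to GAPDH per well, expressed as percent of DMSO control, and IC50 obtained by 4-parameter fit.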

[2] = system: phospho-ERK in AsPC-1 (G12D) cells; assay: as above; format: cell-based; settings: 3 hours compound, phospho-ERK normalized to GAPDH
Procedure, shortened: as §1

[3] = system: phospho-ERK in HCT116 (G13D) cells; assay: as above; format: cell-based; settings: Homo sapiens, HCT-116, 3 hours compound, phospho-ERK normalized to GAPDH
Procedure, shortened: as §1

[4] = system: phospho-ERK in PSN-1 (G12R) cells; assay: as above; format: cell-based; settings: Homo sapiens, PSN1, 3 hours compound, phospho-ERK normalized to GAPDH
Procedure, shortened: as §1

[5] = system: phospho-ERK in NCI-H727 (G12V) cells; assay: as above; format: cell-based; settings: 3 hours compound, phospho-ERK normalized to GAPDH
Procedure, shortened: as §1

[6] = system: phospho-ERK in NCI-H358 (G12C) cells; assay: as above; format: cell-based; settings: Homo sapiens, 3 hours compound, phospho-ERK normalized to GAPDH
Procedure, shortened: as §1

[7] = system: phospho-ERK in A549 (G12S) cells; assay: as above; format: cell-based; settings: Homo sapiens, 3 hours compound, phospho-ERK normalized to GAPDH
Procedure, shortened: as §1

[8] = system: phospho-ERK in NCI-H460 (Q61H) cells; assay: as above; format: cell-based; settings: 3 hours compound, phospho-ERK normalized to GAPDH
Procedure, shortened: as §1

[9] = biological target: KRas G12V (Homo sapiens, UniProt P01116, G12V); assay: biochemical;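 also: KRas binding measured by TR-FRET displacement at room temperature, IC50 fitted from percent of control values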
Chain of KRas G12V (P01116 1-169 isoform P01116-2 G12V): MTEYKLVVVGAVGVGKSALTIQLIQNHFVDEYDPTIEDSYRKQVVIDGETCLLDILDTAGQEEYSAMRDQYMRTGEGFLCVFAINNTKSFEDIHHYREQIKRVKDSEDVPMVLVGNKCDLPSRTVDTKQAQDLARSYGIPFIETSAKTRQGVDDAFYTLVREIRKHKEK
Protocol: (§2) The ability of a compound to bind to KRas was measured using a TR-FRET displacement assay. […] After a 60-minute incubation at room temperature, the reaction was measured using a BMG LABTECH CLARIO star Plus via TR-FRET. […] The POC values were fit to a 4-parameter IC50 equation and the IC50 value reported.

[10] = biological target: KRas G12R (Homo sapiens, UniProt P01116, G12R); assay: biochemical;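 also: TR-FRET displacement assay of compound binding to KRas, read after one hour at room temperature, potency from a four-parameter fit of percent-of-control values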
Chain of KRas G12R (P01116 1-169 isoform P01116-2 G12R): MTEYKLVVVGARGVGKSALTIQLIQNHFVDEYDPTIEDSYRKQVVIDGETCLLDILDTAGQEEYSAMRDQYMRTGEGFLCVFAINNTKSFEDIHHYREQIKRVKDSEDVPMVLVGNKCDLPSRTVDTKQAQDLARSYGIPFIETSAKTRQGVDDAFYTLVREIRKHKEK
Protocol: as §2

[11] = biological target: KRas G12D (Homo sapiens, UniProt P01116, G12D); assay: biochemical;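 also: TR-FRET displacement binding assay on KRas, read after a one-hour incubation at room temperature, IC50 fitted from percent-of-control values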
Chain of KRas G12D (P01116 1-169 isoform P01116-2 G12D): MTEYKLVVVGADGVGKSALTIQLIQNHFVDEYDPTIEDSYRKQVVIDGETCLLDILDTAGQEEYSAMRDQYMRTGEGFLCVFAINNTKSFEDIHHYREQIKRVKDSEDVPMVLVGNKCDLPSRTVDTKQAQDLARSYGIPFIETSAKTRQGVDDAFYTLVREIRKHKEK
Protocol: as §2

Structure (SMILES)	IC50 [1] [nM]	IC50 ([2]; Homo sapiens, ASPC1, 3 h) [nM]	IC50 [3] [nM]	IC50 [4] [nM]	IC50 ([5]; Homo sapiens, NCI-H727, 3 h) [nM]	IC50 [6] [nM]	IC50 [7] [nM]	IC50 ([8]; Homo sapiens, NCI-H460, 3 h) [nM]	IC50 [9] [nM]	IC50 [10] [nM]	IC50 [11] [nM]	IC50 [2] [nM]	IC50 [5] [nM]	IC50 [8] [nM]
CCc1c(F)ccc2cc(O)cc(-c3ncc4c(N5CCCC(C(N)=O)C5)nc(OC[C@@]56CCCN5C[C@H](F)C6)nc4c3F)c12 (stereo partly shown) [Example 147]	65	≥ 10000	≥ 10000	≥ 10000	≥ 10000	79	1950	383	3	3	4	–	–	–
C#Cc1c(F)ccc2cccc(-c3ncc4c(N5CCCC6(CNC(=O)C6)C5)nc(OC[C@@]56CCCN5C[C@H](F)C6)nc4c3F)c12 (stereo partly drawn) [Example 36, 7-(7-(8-ethynyl-7-fluoronaphthalen-1-yl)-8-fluoro-2-(((2R,7aS)-2-fluorohexahydro-1H-pyrrolizin-7a-yl)methoxy)pyrido[4,3-d]pyrimidin-4-yl)-2,7-diazaspiro[4.5]decan-3-one]	1180	1540	1610	≥ 10000	3390	1130	2150	557	20	24	9	–	–	–
CCc1c(F)ccc2cc(O)cc(-c3ncc4c(NCc5ncc6cc[nH]c6n5)nc(OC[C@@]56CCCN5C[C@H](F)C6)nc4c3F)c12 [Example 142, 4-(4-(((7H-pyrrolo[2,3-d]pyrimidin-2-yl)methyl)amino)-8-fluoro-2-(((2R,7aS)-2-fluorohexahydro-1H-pyrrolizin-7a-yl)methoxy)pyrido[4,3-d]pyrimidin-7-yl)-5-ethyl-6-fluoronaphthalen-2-ol]	45	2870	6960	≥ 10000	≥ 10000	78	≥ 10000	212	≤ 2	≤ 2	14	–	–	–
CCc1c(F)ccc2cc(O)cc(-c3ncc4c(NCc5ccc(=O)[nH]c5)nc(OC[C@@]56CCCN5C[C@H](F)C6)nc4c3F)c12 [Example 143]	300	≥ 10000	≥ 10000	≥ 10000	≥ 10000	527	≥ 10000	≥ 10000	≤ 2	≤ 2	4	–	–	–
CCc1c(F)ccc2cc(O)cc(-c3ncc4c(NCc5cn[nH]c5)nc(OC[C@@]56CCCN5C[C@H](F)C6)nc4c3F)c12 [Example 160, 4-(4-(((1H-pyrazol-4-yl)methyl)amino)-8-fluoro-2-(((2R,7aS)-2-fluorohexahydro-1H-pyrrolizin-7a-yl)methoxy)pyrido[4,3-d]pyrimidin-7-yl)-5-ethyl-6-fluoronaphthalen-2-ol]	146	5520	1600	≥ 10000	727	149	974	471	≤ 2	≤ 2	15	–	–	–
Oc1cc(-c2ncc3c(N4CCCC(c5ncn[nH]5)C4)nc(OCC45CCCN4CCC5)nc3c2F)c2c(F)c(F)ccc2c1 (stereo not shown) [Example 137, 4-(4-(3-(1H-1,2,4-triazol-5-yl)piperidin-1-yl)-8-fluoro-2-((hexahydro-1H-pyrrolizin-7a-yl)methoxy)pyrido[4,3-d]pyrimidin-7-yl)-5,6-difluoronaphthalen-2-ol]	≥ 10000	≥ 10000	≥ 10000	≥ 10000	≥ 10000	2040	≥ 10000	≥ 10000	≤ 2	3	≤ 2	–	–	–
CCc1c(F)ccc2cc(O)cc(-c3ncc4c(NCCc5c[nH]c6ncccc56)nc(OC[C@@]56CCCN5C[C@H](F)C6)nc4c3F)c12 [Example 157, 4-(4-((2-(1H-pyrrolo[2,3-b]pyridin-3-yl)ethyl)amino)-8-fluoro-2-(((2R,7aS)-2-fluorohexahydro-1H-pyrrolizin-7a-yl)methoxy)pyrido[4,3-d]pyrimidin-7-yl)-5-ethyl-6-fluoronaphthalen-2-ol]	31	751	893	≥ 10000	4720	31	448	585	≤ 2	≤ 2	12	–	–	–
CCc1c(F)ccc2cc(O)cc(-c3ncc4c(N5CCCC(c6ncn[nH]6)C5)nc(OC[C@@]56CCCN5C[C@H](F)C6)nc4c3F)c12 (stereo partly drawn) [Example 145, 4-(4-(3-(1H-1,2,4-triazol-5-yl)piperidin-1-yl)-8-fluoro-2-(((2R,7aS)-2-fluorohexahydro-1H-pyrrolizin-7a-yl)methoxy)pyrido[4,3-d]pyrimidin-7-yl)-5-ethyl-6-fluoronaphthalen-2-ol]	258	≥ 10000	≥ 10000	≥ 10000	≥ 10000	379	≥ 10000	847	6	3	9	–	–	–
Cc1n[nH]c(C2CCCN(c3nc(OCC45CCCN4CCC5)nc4c(F)c(-c5cc(O)cc6ccc(F)c(F)c56)ncc34)C2)n1 (stereo not shown) [Example 138, 5,6-difluoro-4-(8-fluoro-2-((hexahydro-1H-pyrrolizin-7a-yl)methoxy)-4-(3-(3-methyl-1H-1,2,4-triazol-5-yl)piperidin-1-yl)pyrido[4,3-d]pyrimidin-7-yl)naphthalen-2-ol]	≥ 10000	≥ 10000	≥ 10000	≥ 10000	≥ 10000	≥ 10000	≥ 10000	≥ 10000	5	5	12	–	–	–
CCc1c(F)ccc2cc(O)cc(-c3ncc4c(NCc5ccc6[nH]cnc6c5)nc(OC[C@@]56CCCN5C[C@H](F)C6)nc4c3F)c12 [Example 139, 4-(4-(((1H-benzo[d]imidazol-5-yl)methyl)amino)-8-fluoro-2-(((2R,7aS)-2-fluorohexahydro-1H-pyrrolizin-7a-yl)methoxy)pyrido[4,3-d]pyrimidin-7-yl)-5-ethyl-6-fluoronaphthalen-2-ol]	307	≥ 10000	≥ 10000	≥ 10000	≥ 10000	115	≥ 10000	7510	≤ 2	≤ 2	8	–	–	–
CCc1c(F)ccc2cc(O)cc(-c3ncc4c(NCC5CNC(=O)C5)nc(OC[C@@]56CCCN5C[C@H](F)C6)nc4c3F)c12 (stereo partly shown) [Example 60]	230	3890	3600	≥ 10000	1260	389	5530	1030	≤ 2	≤ 2	≤ 2	–	–	–
CCc1c(F)ccc2cc(O)cc(-c3ncc4c(Nc5ccon5)nc(OC[C@@]56CCCN5C[C@H](F)C6)nc4c3F)c12 [Example 152, 5-ethyl-6-fluoro-4-(8-fluoro-2-(((2R,7aS)-2-fluorohexahydro-1H-pyrrolizin-7a-yl)methoxy)-4-(isoxazol-3-ylamino)pyrido[4,3-d]pyrimidin-7-yl)naphthalen-2-ol]	6290	≥ 10000	≥ 10000	≥ 10000	≥ 10000	≥ 10000	≥ 10000	≥ 10000	8	10	175	–	–	–
CCc1c(F)ccc2cc(O)cc(-c3ncc4c(N5CCN(c6ncccc6C#N)CC5)nc(OC[C@@]56CCCN5C[C@H](F)C6)nc4c3F)c12 [Example 155]	196	1720	≥ 10000	≥ 10000	2670	329	≥ 10000	399	4	3	118	–	–	–
CCc1c(F)ccc2cc(O)cc(-c3ncc4c(N5C[C@H](O)C[C@@H](O)C5)nc(OC[C@@]56CCCN5C[C@H](F)C6)nc4c3F)c12 [Example 59]	107	–	1270	≥ 10000	–	176	3560	–	≤ 2	≤ 2	≤ 2	577	769	296
